Test results published in ChEMBL document CHEMBL5537143, “Synthesis and antimicrobial properties of guanidine-functionalized labdane type diterpenoids” (Eur J Med Chem, 2024).

Columns and labels:
Assay type in all cases: functional
Staphylococcus aureus [1] = test: Antimicrobial activity against methicillin resistant Staphylococcus aureus 43300 assessed as inhibition of microbial growth incubated for 24 hrs by broth-microdilution assay; conditions: read-out: MIC100
[2] = test system: Staphylococcus epidermidis; test: Antimicrobial activity against Staphylococcus epidermidis ATCC 12228 assessed as inhibition of microbial growth incubated for 24 hrs by broth-microdilution assay; conditions: Staphylococcus epidermidis, ATCC 12228, read-out: MIC100
[3] = test system: Staphylococcus epidermidis; test: Antimicrobial activity against Staphylococcus epidermidis ATCC 35984 assessed as inhibition of microbial growth incubated for 24 hrs by broth-microdilution assay; conditions: Staphylococcus epidermidis, ATCC 35984, read-out: MIC100
Staphylococcus aureus [4] = test: Antimicrobial activity against Staphylococcus aureus ATCC 29213 assessed as inhibition of microbial growth incubated for 24 hrs by broth-microdilution assay; conditions: Staphylococcus aureus, ATCC 29213, read-out: MIC100
Staphylococcus aureus [5] = test: Antimicrobial activity against Staphylococcus aureus ATCC 43300 assessed as inhibition of microbial growth incubated for 24 hrs by broth-microdilution assay; conditions: Staphylococcus aureus, ATCC 43300, read-out: MIC100

How did the MIC (Staphylococcus aureus [1]) turn out when `Cc1onc(-c2ccccc2)c1C(=O)N[C@@H]1C(=O)N2[C@@H]1SC(C)(C)[C@@H]2C(=O)O` [OXACILLIN] was run?
Its MIC is 10 µg/mL.

What about the MIC [2] of the same compound?
Its MIC is 2 µg/mL.

What about the MIC [3] of the same compound?
Its MIC is 2 µg/mL.

And the MIC (Staphylococcus aureus [4])?
Its MIC is 2 µg/mL.

What about the MIC (Staphylococcus aureus [5]) of the same compound?
The MIC was 2 µg/mL.
